Reference: ChEMBL document CHEMBL5550106, “Recent advances in the exploration of oxazolidinone scaffolds from compound development to antibacterial agents and other bioactivities” (Eur J Med Chem, 2024)
In brackets after ≈: the same amount, converted by molar mass.

Key:
[1] = tested on: Staphylococcus epidermidis; assay: Antibacterial activity against Staphylococcus epidermidis assessed as reduction in microbial growth after 24 hrs by CLSI based microdilution method; type: functional
Staphylococcus aureus [2] = assay: Antibacterial activity against methicillin-resistant Staphylococcus aureus assessed as reduction in microbial growth by CLSI based broth microdilution method; type: functional
[3] = tested on: Staphylococcus epidermidis; assay: Antibacterial activity against Methicillin-resistant Staphylococcus epidermidis assessed as bacterial growth inhibition; type: functional
[4] = tested on: Staphylococcus epidermidis; assay: Antibacterial activity against linezolid-resistant Staphylococcus epidermidis assessed as reduction in bacterial growth; type: functional
Staphylococcus aureus [5] = assay: Antibacterial activity against Linezolid-resistant Staphylococcus aureus assessed as reduction in bacterial growth; type: functional
Staphylococcus aureus [6] = assay: Antibacterial activity against Staphylococcus aureus assessed as reduction in microbial growth by CLSI based broth microdilution method; type: functional
L02 = assay: Antiproliferative activity against human L02 cells assessed as inhibition of cell growth incubated for 24 hrs by MTT assay; type: functional, cell-based; details: L02, 24 h
SK-OV-3 = assay: Antiproliferative activity against human SK-OV-3 cells assessed as reduction in cell viability incubated for 24 hrs by CCK8 assay; type: functional, cell-based; details: SK-OV-3, 24 h
MGC-803 = assay: Antiproliferative activity against human MGC-803 cells assessed as reduction in cell growth by MTT assay; type: functional, cell-based
NCI-H460 = assay: Antiproliferative activity against human NCI-H460 cells assessed as inhibition of cell growth by MTT assay; type: functional, cell-based
Staphylococcus aureus [7] = assay: Antibacterial activity against Staphylococcus aureus assessed as reduction in bacterial growth incubated for 24 hrs by broth microdilution method; type: functional
Escherichia coli [8] = assay: Antibacterial activity against efflux pump-efficient Escherichia coli MG1655 assessed as bacterial growth inhibition; type: functional
Escherichia coli [9] = assay: Antimicrobial activity against wild type Escherichia coli MG1655 assessed as inhibition of microbial growth; type: functional
Escherichia coli [10] = assay: Antibacterial activity against Escherichia coli MG1655 in presence of polymyxin B nonapeptide; type: functional

SMILES | IC50 (L02) [µM] | IC50 (SK-OV-3) [µM] | IC50 (MGC-803) [µM] | IC50 (NCI-H460) [µM] | further results
O=C1O[C@@H](CO)CN1c1ccc(-c2ccc3c(c2)CC2(C(=O)NCNC2=O)C2CCCCC32)c(F)c1 (stereo partly specified) |  |  |  |  | MIC [1]: 2 µg/mL; MIC (Staphylococcus aureus [2]): 2 µg/mL; MIC [3]: < 1 µg/mL; MIC [4]: 32 µg/mL (≈ 64.8 µM); MIC (Staphylococcus aureus [5]): 32 µg/mL (≈ 64.8 µM); MIC (Staphylococcus aureus [6]): 4 µg/mL
O=C1NC(=O)C2(Cc3cc(-c4ccc(N5C[C@H](CO)OC5=O)cc4F)ccc3N3CCOCC32)C(=O)N1 (stereo partly specified) |  |  |  |  | MIC [1]: 4 µg/mL; MIC (Staphylococcus aureus [2]): 4 µg/mL; MIC [3]: 2 µg/mL (≈ 3.92 µM); MIC [4]: 32 µg/mL (≈ 62.7 µM); MIC (Staphylococcus aureus [5]): 32 µg/mL (≈ 62.7 µM); MIC (Staphylococcus aureus [6]): 8 µg/mL
CC(C)c1ccc2c(c1)CCC1[C@](C)(C(=O)OCC3CN(c4ccccc4)C(=O)O3)CCC[C@]21C (stereo partly specified) | ≥ 26.4 | ≥ 4.1 | 3.82 | ≥ 4.3 | 
COc1ccccc1NCC(O)COC(=O)[C@]1(C)CCC[C@]2(C)c3ccc(C(C)C)cc3CCC12 (stereo partly specified) | ≥ 28.3 | ≥ 14.9 | 7.1 | ≥ 15.6 | 
O=C1O[C@@H](CO)CN1c1ccc(-c2ccccc2)c(F)c1 |  |  |  |  | MIC (Staphylococcus aureus [7]): 1 µg/mL (≈ 3.48 µM); MIC (Escherichia coli [8]): 16 µg/mL (≈ 55.7 µM); MIC (Escherichia coli [9]): > 64 µg/mL; MIC (Escherichia coli [10]): 16 µg/mL
Cc1ccc(N2CC(COC(=O)[C@]3(C)CCC[C@]4(C)c5ccc(C(C)C)cc5CCC34)OC2=O)cc1 (stereo partly specified) | ≥ 26.4 | ≥ 4.1 | 3.82 | ≥ 4.3 | 
CC(=O)NC[C@H]1CN(c2ccc(-c3ccc4c(c3)CC3(C(=O)NC(=O)NC3=O)C3CCCN43)c(F)c2)C(=O)O1 (stereo partly specified) |  |  |  |  | MIC [1]: 2 µg/mL; MIC (Staphylococcus aureus [2]): 2 µg/mL; MIC [3]: < 1 µg/mL; MIC [4]: 32 µg/mL (≈ 59.8 µM); MIC (Staphylococcus aureus [5]): 16 µg/mL (≈ 29.9 µM); MIC (Staphylococcus aureus [6]): 2 µg/mL
Cc1ccccc1NCC(O)COC(=O)[C@]1(C)CCC[C@]2(C)c3ccc(C(C)C)cc3CCC12 (stereo partly specified) | ≥ 28.3 | ≥ 14.9 | 7.1 | ≥ 15.6 | 
CC(C)c1ccc2c(c1)CCC1[C@](C)(C(=O)OCC3CN(c4ccccc4F)C(=O)O3)CCC[C@]21C (stereo partly specified) | ≥ 26.4 | ≥ 4.1 | 3.82 | ≥ 4.3 | 
Cc1ccc(NCC(O)COC(=O)[C@]2(C)CCC[C@]3(C)c4ccc(C(C)C)cc4CCC23)cc1 (stereo partly specified) | ≥ 28.3 | ≥ 14.9 | 7.1 | ≥ 15.6 | 
COC(=O)C1(C(=O)OC)Cc2cc(-c3ccc(N4C[C@H](CO)OC4=O)cc3F)ccc2N2CCOCC21 (stereo partly specified) |  |  |  |  | MIC [1]: 8 µg/mL; MIC (Staphylococcus aureus [2]): 8 µg/mL; MIC [3]: 8 µg/mL (≈ 15.5 µM); MIC [4]: > 32 µg/mL; MIC (Staphylococcus aureus [5]): > 32 µg/mL; MIC (Staphylococcus aureus [6]): 16 µg/mL
Cc1ccccc1N1CC(COC(=O)[C@]2(C)CCC[C@]3(C)c4ccc(C(C)C)cc4CCC23)OC1=O (stereo partly specified) | ≥ 26.4 | ≥ 4.1 | 3.82 | ≥ 4.3 | 
O=C1O[C@@H](CO)CN1c1ccc(-c2ccc(F)c(O)c2)c(F)c1 |  |  |  |  | MIC (Staphylococcus aureus [7]): 2 µg/mL (≈ 6.23 µM); MIC (Escherichia coli [8]): 16 µg/mL (≈ 49.8 µM); MIC (Escherichia coli [9]): > 64 µg/mL; MIC (Escherichia coli [10]): 16 µg/mL
O=Cc1ccc(-c2ccc(N3C[C@H](CO)OC3=O)cc2F)cc1O |  |  |  |  | MIC (Staphylococcus aureus [7]): < 0.5 µg/mL; MIC (Escherichia coli [8]): 16 µg/mL (≈ 48.3 µM); MIC (Escherichia coli [9]): 128 µg/mL; MIC (Escherichia coli [10]): 8 µg/mL
O=C1O[C@@H](CO)CN1c1ccc(-c2ccc([N+](=O)[O-])c(O)c2)c(F)c1 |  |  |  |  | MIC (Staphylococcus aureus [7]): 0.5 µg/mL (≈ 1.44 µM); MIC (Escherichia coli [8]): 64 µg/mL (≈ 184 µM); MIC (Escherichia coli [9]): 64 µg/mL; MIC (Escherichia coli [10]): 64 µg/mL
CC(C)c1ccc2c(c1)CCC1[C@](C)(C(=O)OCC(O)CNc3ccccc3F)CCC[C@]21C (stereo partly specified) | ≥ 28.3 | ≥ 14.9 | 7.1 | ≥ 15.6 | 
CC(C)c1ccc2c(c1)CCC1[C@](C)(C(=O)OCC(O)CNc3cccc(Br)c3)CCC[C@]21C (stereo partly specified) | ≥ 28.3 | ≥ 14.9 | 7.1 | ≥ 15.6 | 
CC(C)c1ccc2c(c1)CCC1[C@](C)(C(=O)OCC(O)CNc3ccccc3)CCC[C@]21C (stereo partly specified) | ≥ 28.3 | ≥ 14.9 | 7.1 | ≥ 15.6 | 
COc1ccccc1N1CC(COC(=O)[C@]2(C)CCC[C@]3(C)c4ccc(C(C)C)cc4CCC23)OC1=O (stereo partly specified) | ≥ 26.4 | ≥ 4.1 | 3.82 | ≥ 4.3 | 
COc1ccc(NCC(O)COC(=O)[C@]2(C)CCC[C@]3(C)c4ccc(C(C)C)cc4CCC23)cc1 (stereo partly specified) | ≥ 28.3 | ≥ 14.9 | 7.1 | ≥ 15.6 | 
O=C1NC(=O)C2(Cc3cc(-c4ccc(N5C[C@H](CO)OC5=O)cc4F)ccc3N3CCCCC32)C(=O)N1 (stereo partly specified) |  |  |  |  | MIC [1]: 2 µg/mL; MIC (Staphylococcus aureus [2]): 2 µg/mL; MIC [3]: < 1 µg/mL; MIC [4]: 32 µg/mL (≈ 62.9 µM); MIC (Staphylococcus aureus [5]): 16 µg/mL (≈ 31.5 µM); MIC (Staphylococcus aureus [6]): 4 µg/mL
Cc1cccc(N2CC(COC(=O)[C@]3(C)CCC[C@]4(C)c5ccc(C(C)C)cc5CCC34)OC2=O)c1 (stereo partly specified) | ≥ 26.4 | ≥ 4.1 | 3.82 | ≥ 4.3 | 
Cc1cccc(NCC(O)COC(=O)[C@]2(C)CCC[C@]3(C)c4ccc(C(C)C)cc4CCC23)c1 (stereo partly specified) | ≥ 28.3 | ≥ 14.9 | 7.1 | ≥ 15.6 | 
NCc1cc(F)c(-c2ccc(N3C[C@H](CO)OC3=O)cc2F)cc1O |  |  |  |  | MIC (Staphylococcus aureus [7]): 32 µg/mL (≈ 91.3 µM); MIC (Escherichia coli [8]): 64 µg/mL (≈ 183 µM); MIC (Escherichia coli [9]): 64 µg/mL; MIC (Escherichia coli [10]): 32 µg/mL
